Data: patent publication US10703764B2, “Benzopiperazine compositions as BET bromodomain inhibitors” (FORMA Therapeutics, Inc., priority 2013, dated 2020)

Tests used:
[1] = molecular target: T1, BRD4 BD2 (Homo sapiens, UniProt O60885); test: AlphaScreen binding assay, BRD4 Bromodomain 2
T1 construct: made in house
Procedure, shortened: (§1)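 An AlphaScreen competition format was used with His-BRD4 BD1 or BD2 and biotin-H4 K5/8/12/16-acetyl peptide, each at matched final levels of 50 nM (BD1) or 100 nM (BD2). Incubation in HEPES/NaCl buffer with 0.1% BSA and 0.01% Triton X-100 ran ≥1 h before IC50 determination.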

[2] = molecular target: T2, BRD4 BD1 (Homo sapiens, UniProt O60885); test: AlphaScreen binding assay, BRD4 Bromodomain 1
T2 construct: made in house
Procedure, shortened: as §1

SMILES	IC50 [1] [nM]	IC50 [2] [nM]
COc1ccc(S(=O)(=O)N2C[C@H](C)N(C(C)=O)c3ccccc32)cc1 [Example I-936]	> 500	> 10000
CC(=O)N1c2ccccc2N(C(=O)c2cnc3ccccc3c2)C[C@@H]1C [Example I-752]	> 500	> 10000
CC(=O)N1c2ccccc2N(C(=O)c2ccccc2)C[C@@H]1C [Example I-694]	> 500	> 10000
COC(=O)N1c2ccc(-c3cnn(CCC#N)c3)cc2N(C(=O)Oc2ccccn2)C[C@@H]1C [Example I-1327]	50 to 500	1000 to 10000
CC(=O)N1c2ccc(-c3nccn3C)cc2N(C(=O)c2ccco2)C[C@@H]1C [Example I-388]	> 500	> 10000
CC(=O)N1c2ccc(-c3cnn(C4CC4)c3)cc2N(C(=O)Oc2cnc3ccccc3c2)C[C@@H]1C [Example I-1203]	50 to 500	1000 to 10000
COc1ccc(OCC(=O)N2C[C@H](C)N(C(C)=O)c3ccccc32)cc1 [Example I-733]	> 500	> 10000
CC(=O)N1c2ccc(-c3ccc(S(C)(=O)=O)cc3)cc2N(C(=O)c2ccc(Oc3cc(Cl)cc(Cl)c3)o2)C[C@@H]1C [Example I-880]	> 500	> 10000
CC(=O)N1c2ccc(-c3ccc(S(C)(=O)=O)cc3)cc2N(C(=O)c2cccc(N)c2)C[C@@H]1C [Example I-985]	50 to 500	> 10000
CC(=O)N1c2ccc(-c3cnn(C4COC4)c3)cc2N(C(=O)OCCC2COC2)C[C@@H]1C [Example I-67, (S)-2-(oxetan-3-yl)ethyl 4-acetyl-3-methyl-7-(1-(oxetan-3-yl)-1H-pyrazol-4-yl)-3,4-dihydroquinoxaline-1(2H)-carboxylate]	> 500	> 10000
CC(=O)N1c2ccc(-c3cnn(CC(=O)N(C)C)c3)cc2N(C(=O)C2CC2)C[C@@H]1C [Example I-683]	50 to 500	1000 to 10000
C[C@H]1CN(C(=O)c2ccco2)c2cc(-c3ccc(S(C)(=O)=O)cc3)ccc2N1C(=O)C1CCC1 [Example I-374]	> 500	1000 to 10000
CC(=O)N1c2ccc(-c3ccc4nnc(C)n4c3)cc2N(C(=O)c2ccco2)C[C@@H]1C [Example I-393]	50 to 500	1000 to 10000
CC(=O)N1c2ccccc2N(C(=O)c2ccc3ncsc3c2)C[C@@H]1C [Example I-724]	> 500	> 10000
CC(=O)N1c2ccc(-c3cccc4ccsc34)cc2N(C(=O)c2ccco2)C[C@@H]1C [Example I-873]	> 500	1000 to 10000
CC(=O)N1c2cnc(-c3ccc(S(C)(=O)=O)cc3)cc2N(C(=O)c2ccco2)C[C@@H]1C [Example I-57, (S)-1-(1-(furan-2-carbonyl)-3-methyl-7-(4-(methylsulfonyl)phenyl)-2,3-dihydropyrido[3,4-b]pyrazin-4(1H)-yl)ethanone]	50 to 500	> 10000
CC(=O)N1c2ccc(-c3ccc(S(C)(=O)=O)cc3)cc2N(C(=O)Nc2cccc(C)c2)C[C@@H]1C [Example I-971]	50 to 500	> 10000
CC(=O)N1c2ccc(-c3cnn(C4COC4)c3)cc2N(C(=O)C(C)(C)Cl)C[C@@H]1C [Example I-115, (S)-1-(4-acetyl-3-methyl-7-(1-(oxetan-3-yl)-1H-pyrazol-4-yl)-3,4-dihydroquinoxalin-1(2H)-yl)-2-chloro-2-methylpropan-1-one]	> 500	> 10000
CC(=O)N1c2ccc(-c3cnn(CCO)c3)cc2N(C(=O)Oc2ccc(F)cc2F)C[C@@H]1C [Example I-1009]	50 to 500	1000 to 10000
CC(=O)N1c2ccccc2N(S(=O)(=O)c2ccccc2Cl)C[C@@H]1C [Example I-942]	> 500	> 10000
CC(=O)N1c2ccccc2N(Cc2ccccc2C)C[C@@H]1C [Example I-896]	> 500	> 10000
CC(C)OC(=O)N1c2ccc(-c3ccc(S(C)(=O)=O)cc3)cc2N(C(=O)c2ccco2)C[C@@H]1C [Example I-372]	> 500	> 10000
CC(=O)N1c2ccc(-c3cnn(C4COC4)c3)cc2N(C(=O)CC2CC2)C[C@@H]1C [Example I-107, (S)-1-(4-acetyl-3-methyl-7-(1-(oxetan-3-yl)-1H-pyrazol-4-yl)-3,4-dihydroquinoxalin-1(2H)-yl)-2-cyclopropylethanone]	50 to 500	1000 to 10000
CC(=O)N1c2ccccc2N(C(=O)c2cnc(C)cn2)C[C@@H]1C [Example I-721]	> 500	> 10000
CC(=O)N1c2ccc(-c3cccc(N(C)C)c3)cc2N(C(=O)c2ccco2)C[C@@H]1C [Example I-870]	50 to 500	100 to 1000
CC(=O)N1c2ccc(-c3ccc(S(C)(=O)=O)cc3)cc2N(C=O)C[C@@H]1C [Example I-102, (S)-4-acetyl-3-methyl-7-(4-(methylsulfonyl)phenyl)-3,4-dihydroquinoxaline-1(2H)-carbaldehyde]	> 500	> 10000
COc1ccc(OC(=O)N2C[C@H](C)N(C(C)=O)c3ccc(-c4cnn(C5CC5)c4)cc32)c(Cl)c1 [Example I-505]	50 to 500	1000 to 10000

SMILES	IC50 [1] [nM]	IC50 [2] [nM]
CCOC(=O)N1C[C@H](C)N(C(=O)OC)c2ccc(-c3cnn(C4CC4)c3)cc21 [Example I-380]	> 500	100 to 1000
CC(=O)N1c2ccc(-c3cccc4[nH]ccc34)cc2N(C(=O)c2ccco2)CC1C (stereo not drawn) [Example I-846]	50 to 500	1000 to 10000
C[C@H]1CN(C(=O)C2CC2)c2cc(-c3ccc(CS(N)(=O)=O)cc3)ccc2N1C(=O)C1CC1 [Example I-446]	50 to 500	100 to 1000
CCC[C@@H](C)CN1C[C@H](C)N(C(C)=O)c2ccccc21 [Example I-927]	> 500	> 10000
CC(=O)N1c2ccccc2N(C(=O)c2ccc(-c3ccccc3)cc2)C[C@@H]1C [Example I-703]	> 500	> 10000
CC(=O)N1c2ccc(-c3ccc(S(C)(=O)=O)cc3)cc2N(C(=O)CC2CCCC2)C[C@@H]1C [Example I-246]	50 to 500	1000 to 10000
CC(=O)N1c2ccc(-c3ccc(S(C)(=O)=O)cc3)cc2N(C(=O)C2CCCC2)C[C@@H]1C [Example I-244]	50 to 500	1000 to 10000
CC(=O)N1c2ccc(-c3ccc(S(C)(=O)=O)cc3)cc2N(C(=O)OC2COC2)C[C@@H]1C [Example I-497]	> 500	1000 to 10000
CC(=O)N1c2ccc(-c3cnoc3)cc2N(C(=O)c2ccco2)C[C@@H]1C [Example I-390]	50 to 500	1000 to 10000
CC(=O)N1c2ccccc2N(S(=O)(=O)c2ccn(C)n2)C[C@@H]1C [Example I-933]	> 500	> 10000
CC(=O)N1c2ccc(-c3ccn4ccnc4n3)cc2N(C(=O)c2ccco2)C[C@@H]1C [Example I-406]	> 500	> 10000
CC(=O)N1c2ccccc2N(C(=O)c2cc3ccccc3s2)C[C@@H]1C [Example I-746]	> 500	> 10000
COc1cscc1C(=O)N1C[C@H](C)N(C(C)=O)c2ccccc21 [Example I-747]	> 500	> 10000
CC(=O)N1c2ccc(-c3cnn(CCC(F)(F)F)c3)cc2N(C(=O)OC(C)C)C[C@@H]1C [Example I-142, (S)-isopropyl 4-acetyl-3-methyl-7-(1-(3,3,3-trifluoropropyl)-1H-pyrazol-4-yl)-3,4-dihydroquinoxaline-1(2H)-carboxylate]	50 to 500	1000 to 10000
C[C@H]1CN(C(=O)c2ccco2)c2cc(-c3ccc(S(C)(=O)=O)cc3)ccc2N1C(=O)N(C)C [Example I-369]	> 500	> 10000
CC(=O)N1c2ccccc2N(Cc2ccc(Cl)c(F)c2)C[C@@H]1C [Example I-898]	> 500	> 10000
CC(=O)N1c2ccc(-c3ccc(S(C)(=O)=O)cc3)cc2N(C(=O)Nc2ccc(C)cc2)C[C@@H]1C [Example I-974]	50 to 500	1000 to 10000
CC(=O)N1c2ccc(-c3cnn(CC(=O)N4CCOCC4)c3)cc2N(C(=O)C2CC2)C[C@@H]1C [Example I-125, (S)-2-(4-(1-acetyl-4-(cyclopropanecarbonyl)-2-methyl-1,2,3,4-tetrahydroquinoxalin-6-yl)-1H-pyrazol-1-yl)-1-morpholinoethanone]	50 to 500	1000 to 10000
CC(=O)N1c2ccccc2N(S(=O)(=O)c2cn(C)cn2)C[C@@H]1C [Example I-961]	> 500	> 10000
CC(=O)N1c2ccc(-c3ccc(C(F)(F)F)cc3)cc2N(C(=O)c2ccco2)C[C@@H]1C [Example I-815]	50 to 500	1000 to 10000
CC(=O)N1c2ccc(-c3ccc4[nH]ccc4c3)cc2N(C(=O)c2ccco2)CC1C (stereo not drawn) [Example I-385]	> 500	1000 to 10000
CC(=O)N1c2ccccc2N(C(=O)c2cccs2)C[C@@H]1C [Example I-745]	> 500	> 10000
CC(=O)N1c2ccccc2N(C(=O)COc2ccc3ccccc3c2)C[C@@H]1C [Example I-734]	> 500	> 10000
CC(=O)N1c2ccccc2N(C(=O)c2ccc3ccccc3c2)C[C@@H]1C [Example I-716]	> 500	> 10000
CC(=O)N1c2ccc(-c3cccc(-c4noc(C)n4)c3)cc2N(C(=O)c2ccco2)C[C@@H]1C [Example I-402]	< 50	1000 to 10000
CC[C@H]1CN(C(=O)c2ccco2)c2cc(-c3ccc(S(C)(=O)=O)cc3)ccc2N1C(C)=O [Example I-6, (S)-1-(2-ethyl-4-(furan-2-carbonyl)-6-(4-(methylsulfonyl)phenyl)-3,4-dihydroquinoxalin-1(2H)-yl)ethan-1-one]	50 to 500	1000 to 10000
COC(=O)N1c2ccc(-c3cnn(CCC#N)c3)cc2N(C(=O)Oc2cccnc2)C[C@@H]1C [Example I-1289]	50 to 500	1000 to 10000
